In patent US20210214375A1 (LUNDBECK LA JOLLA RESEARCH CENTER, INC., priority 2017, published 2021):
Where two headings read alike, the source gives them in different places.

Experiments:
MAGL [1] = biological target: T1, MAGL (Homo sapiens, UniProt Q99685); test: In vitro competitive activity-based protein profiling (gel-based, FP-Rh or HT-01 probe); assay type: biochemical
T1 construct: Proteomes (human prefrontal cortex or cell membrane fractions); from tissue
T1 sequence (Q99685 1-303): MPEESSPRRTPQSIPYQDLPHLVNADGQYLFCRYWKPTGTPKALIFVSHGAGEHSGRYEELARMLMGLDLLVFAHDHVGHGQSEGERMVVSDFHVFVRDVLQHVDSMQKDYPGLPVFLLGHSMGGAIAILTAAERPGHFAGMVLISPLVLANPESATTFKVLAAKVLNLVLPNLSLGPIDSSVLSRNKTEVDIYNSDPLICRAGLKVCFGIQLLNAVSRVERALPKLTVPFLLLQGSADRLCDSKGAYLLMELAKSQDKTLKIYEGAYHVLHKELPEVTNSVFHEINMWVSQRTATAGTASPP
Method in brief: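 Human prefrontal cortex or cell membrane proteomes (1.0 mg/mL protein) preincubated with varying inhibitor concentrations 30 min at 37° C. FP-Rh or HT-01 probe (1.0 μL of 50 μM stock) then added for 30 min at room temperature; reactions quenched with SDS loading buffer and resolved by SDS-PAGE.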

MAGL [2] = biological target: T2, MAGL (Mus musculus, UniProt O35678); test: Mouse brain proteomes from inhibitor treated mice (oral gavage, brain proteomes analyzed 4 h after administration); assay type: in vivo, mouse (C57Bl/6J); settings: brain proteome 4 h after administration, read-out: % Inh 5 mg/kg MGLL (Mouse)
T2 construct: from tissue; host or cells: brain of wild-type C57Bl/6J mice
T2 sequence (O35678 1-303): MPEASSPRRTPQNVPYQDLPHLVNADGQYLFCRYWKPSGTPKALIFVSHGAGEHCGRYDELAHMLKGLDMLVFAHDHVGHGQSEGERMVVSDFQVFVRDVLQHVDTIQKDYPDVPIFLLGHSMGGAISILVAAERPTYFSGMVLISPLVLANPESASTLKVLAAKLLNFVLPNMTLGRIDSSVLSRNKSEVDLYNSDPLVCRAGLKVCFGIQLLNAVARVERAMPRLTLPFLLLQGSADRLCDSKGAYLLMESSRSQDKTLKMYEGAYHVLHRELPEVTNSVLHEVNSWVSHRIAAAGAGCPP
Method in brief: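 Wild-type C57Bl/6J mice dosed orally in polyethylene glycol vehicle; brains removed 4 h post-dose and brain proteomes prepared and analysed for MAGL and serine hydrolase activity by previously established methods.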

MGLL = biological target: T3, MGLL (Mus musculus, UniProt O35678); test: In vitro competitive activity-based protein profiling, mouse brain proteome; assay type: biochemical
T3 construct: Brain; from tissue; host or cells: mouse brain proteome
T3 sequence (O35678 1-303): T2 sequence (O35678 1-303)
Procedure: [Worded in the source for another species; this species is reported under the same test.] (§1) Proteomes (human prefrontal cortex or cell membrane fractions) (50 μL, 1.0 mg/mL total protein concentration) were preincubated with varying concentrations of inhibitors at 37° C. After 30 min, FP—Rh or HT-01 (1.0 μL, 50 μM in DMSO) was added and the mixture was incubated for another 30 min at room temperature. Reactions were quenched with SDS loading buffer (15 μL-4×) and run on SDS-PAGE.

ABHD6 = biological target: T4, ABHD6 (Mus musculus, UniProt Q8R2Y0); test: In vitro competitive activity-based protein profiling, mouse brain proteome, ABHD6; assay type: biochemical; settings: mouse
T4 construct: Brain; from tissue; host or cells: mouse brain proteome
T4 sequence (Q8R2Y0 1-336): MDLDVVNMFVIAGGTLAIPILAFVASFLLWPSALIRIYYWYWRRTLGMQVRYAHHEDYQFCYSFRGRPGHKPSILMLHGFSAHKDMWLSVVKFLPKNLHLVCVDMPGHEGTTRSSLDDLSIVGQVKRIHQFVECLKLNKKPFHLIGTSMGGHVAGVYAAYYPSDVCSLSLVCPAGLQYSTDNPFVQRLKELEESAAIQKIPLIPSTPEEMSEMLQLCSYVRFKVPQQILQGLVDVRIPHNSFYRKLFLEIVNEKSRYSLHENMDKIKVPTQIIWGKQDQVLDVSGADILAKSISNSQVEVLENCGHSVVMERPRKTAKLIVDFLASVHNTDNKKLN
Procedure: [Worded in the source for another target; this target is reported under the same test.] as §1

[3] = PC3 proteome, read-out: IC50 MGLL PC3 (Human)
[4] = PFC (prefrontal cortex) proteome, read-out: IC50 MGLL PFC (Human)

IC50 (MAGL [1]; [3]) [nM]	% Inh MGLL PFC (Human, μM) (MAGL [1]; PFC (prefrontal cortex) proteome)	IC50 (MAGL [1]; [4]) [nM]	inhibition at 5 mg/kg (MAGL [2]) [%]	IC50 (MGLL) [nM]	IC50 (ABHD6) [nM]	SMILES
< 100	### (### is ≥ 75%)	< 100	≤ 25	< 100	> 1000	O=C(O)CN1CCN(c2cc(C(F)(F)F)ccc2CN2CCCC23CCN(C(=O)OC(C(F)(F)F)C(F)(F)F)CC3)CC1 [Example 3, 2-(4-(2-((8-(((1,1,1,3,3,3-Hexafluoropropan-2-yl)oxy)carbonyl)-1,8-diazaspiro[4.5]decan-1-yl)methyl)-5-(trifluoromethyl)phenyl)piperazin-1-yl)acetic acid]
< 100		< 100	≥ 75	< 100	> 1000	O=C(OC(C(F)(F)F)C(F)(F)F)N1CCC2(CCCN2Cc2cc(C(F)(F)F)cc(C3(C(=O)O)CCCC3)c2)CC1 [Example 8, 1-(3-((8-(((1,1,1,3,3,3-Hexafluoropropan-2-yl)oxy)carbonyl)-1,8-diazaspiro[4.5]decan-1-yl)methyl)-5-(trifluoromethyl)phenyl)cyclopentane-1-carboxylic acid]
< 100		< 100	≥ 75	< 100	> 1000	O=C(O)C1CN(c2cc(C(F)(F)F)ccc2CN2CC3(CCN(C(=O)OC(C(F)(F)F)C(F)(F)F)CC3)C2)CCO1 (stereo not shown) [Example 20, 4-(2-((7-(((1,1,1,3,3,3-Hexafluoropropan-2-yl)oxy)carbonyl)-2,7-diazaspiro[3.5]nonan-2-yl)methyl)-5-(trifluoromethyl)phenyl)morpholine-2-carboxylic acid]
< 100		< 100	25 to 75	< 100	100 to 1000	O=C(O)C1CCN(c2cc(CN3CC4(CCN(C(=O)OC(C(F)(F)F)C(F)(F)F)CC4)C3)cc(C(F)(F)F)c2)CC1 [Example 99, 1-(3-((7-(((1,1,1,3,3,3-Hexafluoropropan-2-yl)oxy)carbonyl)-2,7-diazaspiro[3.5]nonan-2-yl)methyl)-5-(trifluoromethyl)phenyl)piperidine-4-carboxylic acid]
< 100			≤ 25	< 100	100 to 1000	CN(Cc1ccc(C(F)(F)F)cc1N1CCOC(C(=O)O)C1)C1(C)CCN(C(=O)OC(C(F)(F)F)C(F)(F)F)CC1 (stereo not shown) [Example 108, 4-(2-(((1-(((1,1,1,3,3,3-Hexafluoropropan-2-yl)oxy)carbonyl)-4-methylpiperidin-4-yl)(methyl)amino)methyl)-5-(trifluoromethyl)phenyl)morpholine-2-carboxylic acid]
< 100			≥ 75	< 100	> 1000	CC(=O)N1CC2(CCN(c3ccccc3CN3CCN(C(=O)OC(C(F)(F)F)C(F)(F)F)CC3)C2)C1 [Example 168, 1,1,1,3,3,3-Hexafluoropropan-2-yl 4-(2-(2-acetyl-2,6-diazaspiro[3.4]oetan-6-yl)benzyl)piperazine-1-carboxylate]
< 100			≥ 75	< 100	> 1000	CS(=O)(=O)N1CCC2(CCN(c3cc(Cl)ccc3CN3CCN(C(=O)OC(C(F)(F)F)C(F)(F)F)CC3)CC2)C1 [Example 174, 1,1,1,3,3,3-Hexafluoropropan-4-(4-chloro-2-(2-(methylsulfonyl)-2,8-diazaspiro[4.5]decan-8-yl)benzyl)piperazine-1-carboxylate]
< 100			≥ 75	< 100	> 1000	CC(=O)N1CC2(CCN(c3cc(C(F)(F)F)ccc3CN3CCN(C(=O)OC(C(F)(F)F)C(F)(F)F)CC3)C2)C1 [Example 180, 1,1,1,3,3,3-Hexafluoropropan-2-yl 4-(2-(2-acetyl-2,6-diazaspiro[3.4]octan-6-yl)-4-(trifluoromethyl)benzyl)piperazine-1-carboxylate]
< 100			≤ 25	< 100	> 1000	CCN1CCC2(CCN(c3cc(C(F)(F)F)ccc3CN3CCN(C(=O)OC(C(F)(F)F)C(F)(F)F)CC3)CC2)C1 [Example 183, 1,1,1,3,3,3-Hexafluoropropan-2-yl 4-(2-(2-ethyl-2,8-diazaspiro[4.5]decan-8-yl)-4-(trifluoromethyl)benzyl)piperazine-1-carboxylate]
< 100		< 100	≥ 75	< 100	> 1000	CS(=O)(=O)N1CCC2(CCN(c3cc(C(F)(F)F)ccc3CN3CCN(C(=O)OC(C(F)(F)F)C(F)(F)F)CC3)CC2)C1 [Example 185, 1,1,1,3,3,3-Hexafluoropropan-2-yl 4-(2-(2-(methylsulfonyl)-2,8-diazaspiro[4.5]decan-8-yl)-4-- (trifluoromethyl)benzyl)piperazine-1-carboxylate]
< 100			≥ 75	< 100	> 1000	CS(=O)(=O)N1CC2(CCN(c3cc(C(F)(F)F)ccc3CN3CCN(C(=O)OC(C(F)(F)F)C(F)(F)F)CC3)C2)C1 [Example 186, 1,1,1,3,3,3-Hexafluoropropan-2-yl 4-(2-(2-(methylsulfonyl)-2,6-diazaspiro[3.4]octan-6-yl)-4-(trifluoromethyl)benzyl)piperazine-1-carboxylate]
< 100			≥ 75	< 100	> 1000	CC(=O)N1CCC2(CCN(c3cc(C(F)(F)F)ccc3CN3CCN(C(=O)OC(C(F)(F)F)C(F)(F)F)CC3)CC2)C1 [Example 189, 1,1,1,3,3,3-Hexafluoropropan-2-yl 4-(2-(2-acetyl-2,8-diazaspiro[4.5]decan-8-yl)-4-(trifluoromethyl)benzyl)piperazine-1-carboxylate]
< 100			≥ 75	< 100	> 1000	CC(=O)N1CC2(CCN(c3cc(C(F)(F)F)ccc3CN3CCN(C(=O)OC(C(F)(F)F)C(F)(F)F)CC3)CC2)C1 [Example 216, 1,1,1,3,3,3-Hexafluoropropan-2-yl 4-(2-(2-acetyl-2,7-diazaspiro[3.5]nonan-7-yl)-4-(trifluoromethyl)benzyl)piperazine-1-carboxylate]
